This test relates to human monocyte stimulated cytokine production (TNF-α). The experiment in a line: Monocyte assay (LPS-stimulated TNF-α production). Type of test: cell-based. The following applies: for IC50: human CD14+ monocytes, 200 ng/mL LPS, 24 hrs, values given as 'about', read-out: pIC50 in the monocyte assay (converted). The procedure: Effect of IKK-β inhibition on human monocyte stimulated cytokine production was assessed as follows: Monocytes were isolated from heparinized whole blood by Ficoll gradient, followed by purification of CD14+ cells using MACS magnetic cell separation beads. Isolated monocytes were then adhered to 96-well culture plates at 1×10^6 cells/mL in RPMI 1640 10% FBS (JRH Biosciences, Lenexa Kans.) for 2 h. Test compounds are added to the wells 30 minutes prior to stimulation with a final vehicle concentration of 0.1% DMSO. Monocytes were activated by the addition of 200 ng/mL endotoxin (LPS; E. coli serotype 026:B6) (Sigma, St. Louis, Mo.) and incubated for 24 hrs at 37 C. Cell-free supernates were analyzed by Alphascreen™ (Perkin Elmer, Waltham, Mass.) for TNF-α using R&D Systems matched pair Abs. Viability of the cells was determined by 10% trypan blue exclusion.

The values below come from patent US8071584B2 (GlaxoSmithKline LLC, priority 2007, dated 2011).

`CC1(C)CC(c2c[nH]c3c(C(N)=O)cc(-c4ccsc4)cc23)CCS1(=O)=O` (stereo not drawn) [Example 227, 3-(2,2-Dimethyl-1,1-dioxidotetrahydro-2H-thiopyran-4-yl)-5-(3-thienyl)-1H-indole-7-carboxamide]: the IC50 was 5.01 to 1000 nM.
`CC1(C)CC(c2c[nH]c3c(C(N)=O)cc(-c4ccoc4)cc23)CCS1(=O)=O` (stereo not drawn) [Example 228, 3-(2,2-Dimethyl-1,1-dioxidotetrahydro-2H-thiopyran-4-yl)-5-(3-furanyl)-1H-indole-7-carboxamide]: the IC50 was 5.01 to 1000 nM.
For the setting “300 nM, human monocytes, LPS”, `CC1(C)CC(c2c[nH]c3c(C(N)=O)cc(-c4csc(CN5CCCCCC5)c4)cc23)CCS1(=O)=O` (stereo not drawn) [Example 231, 3-(2,2-Dimethyl-1,1-dioxidotetrahydro-2H-thiopyran-4-yl)-5-[5-(hexahydro-1H-azepin-1-ylmethyl)-3-thienyl]-1H-indole-7-carboxamide] returned an inhibition at 0.3 µM of 0 to 100%.
With `CN(C)Cc1cc(-c2cc(C(N)=O)c3[nH]cc(C4CCS(=O)(=O)C(C)(C)C4)c3c2)cs1` (stereo not drawn) [Example 232, 5-{5-[(Dimethylamino)methyl]-3-thienyl}-3-(2,2-dimethyl-1,1-dioxidotetrahydro-2H-thiopyran-4-yl)-1H-indole-7-carboxamide], the IC50 was 5.01 to 1000 nM.
The same measure, in the same setting: to `CC1(C)CC(c2c[nH]c3c(C(N)=O)cc(-c4csc(CN5CCC5)c4)cc23)CCS1(=O)=O` (stereo not drawn) [Example 234, 5-[5-(1-Azetidinylmethyl)-3-thienyl]-3-(2,2-dimethyl-1,1-dioxidotetrahydro-2H-thiopyran-4-yl)-1H-indole-7-carboxamide] belongs 5.01 to 1000 nM; to `CC1(C)CC(c2c[nH]c3c(C(N)=O)cc(-c4ccc(CN5CCCC5)s4)cc23)CCS1(=O)=O` (stereo not drawn) [Example 235, 3-(2,2-Dimethyl-1,1-dioxidotetrahydro-2H-thiopyran-4-yl)-5-[5-(1-pyrrolidinylmethyl)-2-thienyl]-1H-indole-7-carboxamide], 5.01 to 1000 nM; to `CC1(C)CC(c2c[nH]c3c(C(N)=O)cc(-c4ccc(S(=O)(=O)N5CCCC5)s4)cc23)CCS1(=O)=O` (stereo not drawn) [Example 239, 3-(2,2-Dimethyl-1,1-dioxidotetrahydro-2H-thiopyran-4-yl)-5-[5-(1-pyrrolidinylsulfonyl)-2-thienyl]-1H-indole-7-carboxamide], 5.01 to 1000 nM.
On the same count and under the same terms, the result for `CC1(C)CC(c2c[nH]c3c(C(N)=O)cc(-c4ccc(S(=O)(=O)C5CCCC5)s4)cc23)CCS1(=O)=O` (stereo not drawn) [Example 240, 5-[5-(Cyclopentylsulfonyl)-2-thienyl]-3-(2,2-dimethyl-1,1-dioxidotetrahydro-2H-thiopyran-4-yl)-1H-indole-7-carboxamide] reads 5.01 to 1000 nM; that for `NC(=O)c1cc(-c2ccsc2)cc2c([C@@H]3CCS(=O)(=O)[C@H](c4ccccc4)C3)c[nH]c12` [Example 247, 3-[(2S,4R)1,1-dioxido-2-phenyltetrahydro-2H-thiopyran-4-yl]-5-(3-thienyl)-1H-indole-7-carboxamide], 5.01 to 1000 nM.
As for `NC(=O)c1cc(-c2ccsc2)cc2c([C@H]3CCS(=O)(=O)[C@@H](c4ccccc4)C3)c[nH]c12` [Example 248, 3-[(2R,4S)1,1-dioxido-2-phenyltetrahydro-2H-thiopyran-4-yl]-5-(3-thienyl)-1H-indole-7-carboxamide], the IC50 is above 1000 nM.
The same measure, in the same setting: to `NC(=O)c1cc(-c2ccoc2)cc2c(CC3CCS(=O)(=O)CC3)c[nH]c12` [Example 253, 3-[(1,1-dioxidotetrahydro-2H-thiopyran-4-yl)methyl]-5-(3-furanyl)-1H-indole-7-carboxamide] belongs 5.01 to 1000 nM.
Consider `NC(=O)c1cc(-c2csc(CN3CCCCCC3)c2)cc2c(CC3CCS(=O)(=O)CC3)c[nH]c12` [Example 258, 3-[(1,1-dioxidotetrahydro-2H-thiopyran-4-yl)methyl]-5-[5-(hexahydro-1H-azepin-1-ylmethyl)-3-thienyl]-1H-indole-7-carboxamide], for which the IC50 is 5.01 to 1000 nM.
On the same count and under the same terms, to `NC(=O)c1cc(-c2ccccc2)cc2c(CC3CCS(=O)(=O)C3)c[nH]c12` (stereo not drawn) [Example 259, 3-[(1,1-Dioxidotetrahydro-3-thienyl)methyl]-5-phenyl-1H-indole-7-carboxamide] belongs 5.01 to 1000 nM; to `NC(=O)c1cc(-c2ccsc2)cc2c(CC3CCS(=O)(=O)C3)c[nH]c12` (stereo not drawn) [Example 260, 3-[(1,1-Dioxidotetrahydro-3-thienyl)methyl]-5-(3-thienyl)-1H-indole-7-carboxamide], 5.01 to 1000 nM.
The same measure, in the same setting: to `CN(C)Cc1cc(-c2cc(C(N)=O)c3[nH]cc(CC4CCS(=O)(=O)C4)c3c2)cs1` (stereo not drawn) [Example 261, 5-{5-[(Dimethylamino)methyl]-3-thienyl}-3-[(1,1-dioxidotetrahydro-3-thienyl)methyl]-1H-indole-7-carboxamide] belongs 5.01 to 1000 nM.
